Source: ChEMBL document CHEMBL4346703, “Structure Overhaul Affords a Potent Purine PI3Kδ Inhibitor with Improved Tolerability” (J Med Chem, 2019)

Experiments:
[1] = Intrinsic clearance in Wistar Han rat at 0.5 mg/kg, iv or 1 mg/kg, po; assay type: ADME, organism-based; conditions: in vivo
[2] = Plasma clearance in Beagle dog at 0.05 mg/kg; assay type: ADME, organism-based, Canis lupus familiaris
[3] = Plasma clearance in Wistar Han rat at 0.5 mg/kg, iv or 1 mg/kg, po; assay type: ADME, organism-based
[4] = target: T1, Phosphatidylinositol 4,5-bisphosphate 3-kinase catalytic subunit delta isoform (Homo sapiens, UniProt O00329); experiment: Inhibition of PI3Kdelta in human Ramos cells assessed as reduction in anti-IgM-antibody-induced phosphorylation of AKT at Ser473 residue preincubated for 20 mins followed by anti-IgM antibody stimulation and measured after 30 mins by alphascreen assay; assay type: cell-based
T1 sequence (O00329 whole entry): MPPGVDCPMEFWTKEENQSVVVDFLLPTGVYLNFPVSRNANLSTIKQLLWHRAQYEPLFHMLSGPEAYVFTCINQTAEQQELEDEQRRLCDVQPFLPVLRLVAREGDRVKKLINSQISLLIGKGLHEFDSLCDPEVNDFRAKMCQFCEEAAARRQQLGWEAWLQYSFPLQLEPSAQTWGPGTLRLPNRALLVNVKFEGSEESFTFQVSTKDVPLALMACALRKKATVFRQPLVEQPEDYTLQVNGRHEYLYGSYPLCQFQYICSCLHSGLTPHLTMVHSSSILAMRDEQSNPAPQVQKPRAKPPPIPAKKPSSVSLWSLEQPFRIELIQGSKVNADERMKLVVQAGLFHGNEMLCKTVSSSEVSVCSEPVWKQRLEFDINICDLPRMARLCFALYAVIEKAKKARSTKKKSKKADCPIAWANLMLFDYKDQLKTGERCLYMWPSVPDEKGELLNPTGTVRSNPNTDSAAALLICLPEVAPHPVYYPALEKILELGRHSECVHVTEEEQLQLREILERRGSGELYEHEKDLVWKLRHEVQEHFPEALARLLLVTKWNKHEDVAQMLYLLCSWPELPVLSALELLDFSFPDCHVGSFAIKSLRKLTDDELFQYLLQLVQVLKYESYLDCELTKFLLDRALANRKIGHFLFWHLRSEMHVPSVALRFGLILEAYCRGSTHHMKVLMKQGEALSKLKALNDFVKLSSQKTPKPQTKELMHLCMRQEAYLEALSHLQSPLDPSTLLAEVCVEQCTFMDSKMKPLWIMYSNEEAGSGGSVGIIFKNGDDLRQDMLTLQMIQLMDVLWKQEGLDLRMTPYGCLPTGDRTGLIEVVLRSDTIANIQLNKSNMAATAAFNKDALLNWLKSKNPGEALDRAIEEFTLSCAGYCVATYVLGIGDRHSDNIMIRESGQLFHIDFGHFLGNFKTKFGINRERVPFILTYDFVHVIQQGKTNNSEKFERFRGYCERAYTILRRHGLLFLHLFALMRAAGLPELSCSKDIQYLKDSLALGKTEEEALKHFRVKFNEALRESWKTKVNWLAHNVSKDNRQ

[5] = Protein binding in Beagle dog plasma; assay type: ADME, cell-free, Canis lupus familiaris; conditions: read-out: PPB (converted)
[6] = Volume of distribution in Wistar Han rat; assay type: ADME; conditions: in vivo
[7] = Half-life in Beagle dog; assay type: ADME, Canis lupus familiaris; conditions: in vivo
[8] = Inhibition of adenosine transporter in human HeLa cells assessed as reduction in [3H]adenosine uptake preincubated for 30 mins followed by [3H]adenosine addition and measured after 60 mins; assay type: ADME, cell-based
[9] = Protein binding in Wistar Han rat plasma; assay type: ADME, cell-free; conditions: read-out: PPB (converted)
[10] = Intrinsic clearance in Beagle dog at 0.05 mg/kg; assay type: ADME, organism-based, Canis lupus familiaris; conditions: in vivo
[11] = target: PI3-kinase p110-delta/p85-alpha (Homo sapiens, UniProt O00329); experiment: Inhibition of N-terminal His6-tagged recombinant full length human p110delta/untagged recombinant full length human p85alpha expressed in baculovirus infected Sf21 insect cells using PIP2 as substrate preincubated for 15 mins followed by substrate addition and measured after 1 hr by HTRF assay
[12] = Unbound volume of distribution in Beagle dog; assay type: ADME, Canis lupus familiaris; conditions: in vivo
[13] = target: PI3-kinase p110-alpha/p85-alpha (Homo sapiens, UniProt P42336); experiment: Inhibition of N-terminal His6-tagged recombinant full length human p110alpha/untagged recombinant full length human p85alpha expressed in baculovirus infected Sf21 insect cells using PIP2 as substrate preincubated for 15 mins followed by substrate addition and measured after 1 hr by HTRF assay
[14] = Oral bioavailability in Wistar Han rat; assay type: ADME, organism-based; conditions: in vivo
[15] = Unbound volume of distribution in Wistar Han rat; assay type: ADME; conditions: in vivo
[16] = Volume of distribution in Beagle dog; assay type: ADME, Canis lupus familiaris; conditions: in vivo
[17] = Lipophilicity, log D of the compound; assay type: physicochemical; conditions: octanol/water
[18] = Half-life in Wistar Han rat; assay type: ADME; conditions: in vivo
[19] = Stability in rat microsomes in the presence of NADPH; assay type: ADME, Microsome
[20] = Toxicity in rat assessed as increase in heart rate at 750 mg/kg/day; assay type: organism-based; conditions: in vivo
[21] = Protein binding in human plasma; assay type: ADME, cell-free; conditions: read-out: PPB (converted)
Phosphodiesterase 4 = Phosphodiesterase 4 (Homo sapiens, UniProt P27815+Q08499+Q07343+Q08493); experiment: Inhibition of PDE4 (unknown origin); assay type: protein assay
[22] = target: T1, Phosphatidylinositol 4,5-bisphosphate 3-kinase catalytic subunit delta isoform; experiment: Inhibition of PI3Kdelta in human whole blood assessed as reduction in antihuman IgE antibody-stimulated CD63 expression preincubated for 30 mins followed by antihuman IgE antibody stimulation and measured after 20 mins by FACS analysis; assay type: tissue-based
[23] = Toxicity in rat assessed as increase in blood pressure at 750 mg/kg/day; assay type: organism-based; conditions: in vivo
[24] = Toxicity in Beagle dogs assessed as medial necrosis of the arteries by measuring disruption of tunica media by fibrin at 30 mg/kg; assay type: organism-based, Canis lupus familiaris; conditions: dog, in vivo
[25] = fCmax in Beagle dog at 30 mg/kg; assay type: ADME, organism-based, Canis lupus familiaris; conditions: in vivo
[26] = Stability in human microsomes in the presence of NADPH; assay type: ADME, Microsome
[27] = target: T2, Nuclear receptor subfamily 1 group I member 2 (Homo sapiens, UniProt O75469); experiment: Activation of PXR (unknown origin); assay type: ADME
T2 sequence (O75469 whole entry): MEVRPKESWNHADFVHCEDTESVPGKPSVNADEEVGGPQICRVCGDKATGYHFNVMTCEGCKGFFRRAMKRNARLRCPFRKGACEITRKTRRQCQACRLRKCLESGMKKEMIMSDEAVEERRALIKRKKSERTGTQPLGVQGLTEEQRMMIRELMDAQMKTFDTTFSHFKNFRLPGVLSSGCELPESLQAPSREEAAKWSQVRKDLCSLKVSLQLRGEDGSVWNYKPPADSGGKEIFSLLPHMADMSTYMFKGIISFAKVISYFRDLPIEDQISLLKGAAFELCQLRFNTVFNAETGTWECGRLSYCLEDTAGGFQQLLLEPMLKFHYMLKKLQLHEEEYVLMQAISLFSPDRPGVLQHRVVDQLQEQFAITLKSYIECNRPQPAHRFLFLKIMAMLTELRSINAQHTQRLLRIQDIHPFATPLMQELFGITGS

[28] = fAUC in rat at 750 mg/kg/day; assay type: ADME, organism-based; conditions: in vivo
Phosphodiesterase 3 = Phosphodiesterase 3 (Homo sapiens, UniProt Q14432+Q13370); experiment: Inhibition of PDE3 (unknown origin); assay type: protein assay
[29] = Drug metabolism in dog microsomes assessed as N-dealkylation of pyrazole metabolite; assay type: ADME, Canis lupus familiaris, Microsome
[30] = Toxicity in Beagle dogs assessed as medial necrosis of the arteries by measuring disruption of tunica media by cellular debris at 30 mg/kg; assay type: organism-based, Canis lupus familiaris; conditions: dog, in vivo
[31] = Toxicity in Beagle dogs assessed as medial necrosis of the arteries by measuring disruption of tunica media by hemorrhage at 30 mg/kg; assay type: organism-based, Canis lupus familiaris; conditions: dog, in vivo
[32] = Drug metabolism in dog microsomes assessed as oxidation of imidazopyridinone metabolite; assay type: ADME, Canis lupus familiaris, Microsome
Phosphodiesterase 1 = Phosphodiesterase 1 (Homo sapiens, UniProt P54750+Q01064+Q14123); experiment: Inhibition of PDE1 (unknown origin); assay type: protein assay
[33] = fCmax in rat at 750 mg/kg/day; assay type: ADME, organism-based; conditions: in vivo
[34] = fAUC in Beagle dog at 30 mg/kg; assay type: ADME, organism-based, Canis lupus familiaris; conditions: in vivo
[35] = Plasma clearance in Beagle dog at 0.25 mg/kg, iv or 0.5 mg/kg, po; assay type: ADME, organism-based, Canis lupus familiaris
[36] = target: cAMP and cAMP-inhibited cGMP 3',5'-cyclic phosphodiesterase 10A (Homo sapiens, UniProt Q9Y233); experiment: Inhibition of PDE10 (unknown origin)
[37] = target: cGMP-dependent 3',5'-cyclic phosphodiesterase (Homo sapiens, UniProt O00408); experiment: Inhibition of PDE2 (unknown origin)
[38] = target: T1, Phosphatidylinositol 4,5-bisphosphate 3-kinase catalytic subunit delta isoform; experiment: Inhibition of PI3Kdelta in human whole blood assessed as reduction in anti-CD79b antibody-induced CD69 expression preincubated for 60 mins followed by anti-CD79b antibody stimulation and measured after 3 hrs by FACS analysis; assay type: tissue-based
[39] = Oral bioavailability in Beagle dog; assay type: ADME, organism-based, Canis lupus familiaris; conditions: in vivo
[40] = Plasma clearance in Wistar Han rat at 0.05 mg/kg; assay type: ADME, organism-based
[41] = Intrinsic clearance in Wistar Han rat at 0.05 mg/kg; assay type: ADME, organism-based; conditions: in vivo

Chain of PI3-kinase p110-alpha/p85-alpha (P27986 whole entry): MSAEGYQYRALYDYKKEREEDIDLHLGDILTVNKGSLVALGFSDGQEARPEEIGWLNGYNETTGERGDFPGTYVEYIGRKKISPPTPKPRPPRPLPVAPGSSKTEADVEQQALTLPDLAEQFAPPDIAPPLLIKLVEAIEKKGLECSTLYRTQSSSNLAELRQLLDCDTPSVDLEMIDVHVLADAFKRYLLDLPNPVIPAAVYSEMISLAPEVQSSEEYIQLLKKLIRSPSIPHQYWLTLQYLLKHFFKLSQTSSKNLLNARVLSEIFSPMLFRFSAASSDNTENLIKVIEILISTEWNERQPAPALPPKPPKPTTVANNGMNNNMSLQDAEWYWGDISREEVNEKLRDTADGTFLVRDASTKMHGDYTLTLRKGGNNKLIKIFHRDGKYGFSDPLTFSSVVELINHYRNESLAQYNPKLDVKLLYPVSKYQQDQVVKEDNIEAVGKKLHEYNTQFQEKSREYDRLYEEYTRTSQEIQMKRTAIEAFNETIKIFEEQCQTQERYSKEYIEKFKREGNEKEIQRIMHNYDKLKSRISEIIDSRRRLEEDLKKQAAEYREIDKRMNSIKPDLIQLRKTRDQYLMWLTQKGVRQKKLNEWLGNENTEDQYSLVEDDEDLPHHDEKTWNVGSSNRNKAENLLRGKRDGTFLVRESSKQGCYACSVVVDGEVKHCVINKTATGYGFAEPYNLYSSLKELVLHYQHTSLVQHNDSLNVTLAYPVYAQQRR
Chain of PI3-kinase p110-alpha/p85-alpha (P42336 whole entry): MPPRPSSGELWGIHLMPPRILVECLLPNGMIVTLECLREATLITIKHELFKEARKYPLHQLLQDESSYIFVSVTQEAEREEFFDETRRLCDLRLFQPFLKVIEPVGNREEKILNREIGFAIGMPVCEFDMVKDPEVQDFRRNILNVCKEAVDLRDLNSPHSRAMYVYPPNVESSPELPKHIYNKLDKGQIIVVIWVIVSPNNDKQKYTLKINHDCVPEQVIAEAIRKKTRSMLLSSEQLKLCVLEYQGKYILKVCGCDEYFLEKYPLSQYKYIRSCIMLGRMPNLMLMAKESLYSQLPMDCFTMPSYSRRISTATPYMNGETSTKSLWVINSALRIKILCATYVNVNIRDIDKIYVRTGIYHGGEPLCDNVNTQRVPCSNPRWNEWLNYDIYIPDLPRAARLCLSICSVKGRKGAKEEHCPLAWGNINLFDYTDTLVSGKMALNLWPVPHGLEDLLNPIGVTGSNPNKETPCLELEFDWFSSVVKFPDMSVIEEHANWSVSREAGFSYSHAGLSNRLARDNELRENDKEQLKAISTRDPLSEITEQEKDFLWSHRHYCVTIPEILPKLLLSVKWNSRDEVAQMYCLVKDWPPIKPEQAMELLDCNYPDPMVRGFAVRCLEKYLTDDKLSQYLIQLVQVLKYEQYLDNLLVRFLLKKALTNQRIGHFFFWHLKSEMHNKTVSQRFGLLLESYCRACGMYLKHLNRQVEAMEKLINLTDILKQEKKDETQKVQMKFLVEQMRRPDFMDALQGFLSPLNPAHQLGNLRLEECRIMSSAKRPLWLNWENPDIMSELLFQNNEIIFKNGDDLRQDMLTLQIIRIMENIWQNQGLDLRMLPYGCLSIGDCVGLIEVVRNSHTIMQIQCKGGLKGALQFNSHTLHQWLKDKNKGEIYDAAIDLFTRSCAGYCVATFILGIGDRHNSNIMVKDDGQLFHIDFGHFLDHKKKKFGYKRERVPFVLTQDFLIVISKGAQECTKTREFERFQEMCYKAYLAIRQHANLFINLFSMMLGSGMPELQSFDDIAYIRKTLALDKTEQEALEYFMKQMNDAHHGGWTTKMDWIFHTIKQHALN
Chain of PI3-kinase p110-delta/p85-alpha (P27986 whole entry, one chain of several): as the sequence (P27986 whole entry) above
Chain of cGMP-dependent 3',5'-cyclic phosphodiesterase (O00408 whole entry, canonical isoform): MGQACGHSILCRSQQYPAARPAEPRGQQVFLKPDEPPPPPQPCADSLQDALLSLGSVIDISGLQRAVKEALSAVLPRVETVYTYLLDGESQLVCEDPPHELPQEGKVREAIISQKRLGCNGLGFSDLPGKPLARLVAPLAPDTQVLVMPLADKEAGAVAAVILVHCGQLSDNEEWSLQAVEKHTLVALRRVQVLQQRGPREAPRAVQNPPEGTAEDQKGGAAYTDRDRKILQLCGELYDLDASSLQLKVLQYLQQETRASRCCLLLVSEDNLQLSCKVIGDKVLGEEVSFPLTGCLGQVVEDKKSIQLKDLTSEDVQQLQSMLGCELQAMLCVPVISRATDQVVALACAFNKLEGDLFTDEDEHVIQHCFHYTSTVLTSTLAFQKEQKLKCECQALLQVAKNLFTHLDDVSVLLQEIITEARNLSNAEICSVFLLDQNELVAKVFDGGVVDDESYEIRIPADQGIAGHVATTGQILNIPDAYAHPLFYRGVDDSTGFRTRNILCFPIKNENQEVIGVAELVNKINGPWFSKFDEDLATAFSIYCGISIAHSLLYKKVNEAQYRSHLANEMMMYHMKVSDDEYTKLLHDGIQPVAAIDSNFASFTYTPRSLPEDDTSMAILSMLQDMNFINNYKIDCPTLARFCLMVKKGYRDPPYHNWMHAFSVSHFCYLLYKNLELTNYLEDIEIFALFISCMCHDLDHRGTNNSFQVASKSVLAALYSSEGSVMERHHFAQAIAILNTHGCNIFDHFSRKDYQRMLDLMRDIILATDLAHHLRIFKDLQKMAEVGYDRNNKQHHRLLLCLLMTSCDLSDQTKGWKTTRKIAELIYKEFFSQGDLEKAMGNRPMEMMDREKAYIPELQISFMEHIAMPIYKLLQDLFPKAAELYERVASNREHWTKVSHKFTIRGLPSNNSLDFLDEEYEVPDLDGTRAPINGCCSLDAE
Chain of cAMP and cAMP-inhibited cGMP 3',5'-cyclic phosphodiesterase 10A (Q9Y233 whole entry): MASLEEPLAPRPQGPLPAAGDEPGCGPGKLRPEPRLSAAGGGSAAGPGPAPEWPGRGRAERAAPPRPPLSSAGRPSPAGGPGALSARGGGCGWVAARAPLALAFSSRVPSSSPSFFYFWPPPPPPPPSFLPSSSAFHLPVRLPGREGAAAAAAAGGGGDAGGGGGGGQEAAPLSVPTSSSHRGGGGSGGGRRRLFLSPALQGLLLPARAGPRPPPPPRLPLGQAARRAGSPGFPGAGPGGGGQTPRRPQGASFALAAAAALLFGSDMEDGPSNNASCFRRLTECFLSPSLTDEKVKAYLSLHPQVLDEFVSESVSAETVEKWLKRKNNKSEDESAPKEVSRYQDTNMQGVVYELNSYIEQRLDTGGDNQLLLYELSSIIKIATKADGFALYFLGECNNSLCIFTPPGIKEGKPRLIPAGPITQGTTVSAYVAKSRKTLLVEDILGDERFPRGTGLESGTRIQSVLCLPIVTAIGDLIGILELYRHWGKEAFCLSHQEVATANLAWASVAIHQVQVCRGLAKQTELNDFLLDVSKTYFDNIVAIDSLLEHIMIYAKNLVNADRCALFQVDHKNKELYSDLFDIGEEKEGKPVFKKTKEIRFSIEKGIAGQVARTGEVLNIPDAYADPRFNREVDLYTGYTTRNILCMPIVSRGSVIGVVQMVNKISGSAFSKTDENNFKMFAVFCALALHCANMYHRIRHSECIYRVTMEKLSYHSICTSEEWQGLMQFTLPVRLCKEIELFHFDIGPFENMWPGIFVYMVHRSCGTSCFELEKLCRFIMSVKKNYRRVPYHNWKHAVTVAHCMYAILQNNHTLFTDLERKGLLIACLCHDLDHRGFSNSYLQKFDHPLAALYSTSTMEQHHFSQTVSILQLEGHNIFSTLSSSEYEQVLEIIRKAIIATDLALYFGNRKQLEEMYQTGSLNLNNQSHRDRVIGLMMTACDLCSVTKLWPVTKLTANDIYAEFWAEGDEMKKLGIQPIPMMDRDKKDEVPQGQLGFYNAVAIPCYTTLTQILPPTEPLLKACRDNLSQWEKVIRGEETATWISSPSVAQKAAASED

CCn1ncc(-c2nc3c(O[C@H]4CCN(C(=O)C5CC5)C4)ncnc3n2C)c1C
CL [1]: 98 mL/min/kg
clearance [2]: 4.1 mL/min/kg
clearance [3]: 23 mL/min/kg
IC50 [4]: 190 nM
fraction unbound [5]: 0.59
Vd [6]: 0.8 L/kg
half-life [7]: 2.7 h
IC50 [8]: 7480 nM
fraction unbound [9]: 0.33
CL [10]: 8 mL/min/kg
IC50 [11]: 5.3 nM
Vdu [12]: 2 L/kg
IC50 [13]: 169 nM
bioavailability [14]: 52%
Vdu [15]: 2 L/kg
Vd [16]: 0.9 L/kg
logD [17]: 1.2
half-life [18]: 0.4 h

CCn1ncc(-c2nc3c(N4CCC(n5c(=O)[nH]c6ncccc65)CC4)ncnc3n2C)c1C
Stability [19]: Stable
Activity [20]: 100 bpm
CL [1]: 60 mL/min/kg
fraction unbound [21]: 0.21
IC50 (Phosphodiesterase 4): 1190 nM
clearance [3]: 5.8 mL/min/kg
IC50 [4]: 63 nM
IC50 [22]: 790 nM
Activity [23]: 20 mmHg
Activity [24]: Non-Toxic
fCmax [25]: 0.33 µM
Stability [26]: Stable
Activity [27]: Not Active
fAUC [28]: 123 µM·h
fraction unbound [5]: 0.05
Vd [6]: 0.4 L/kg
half-life [7]: 1.1 h
IC50 [8]: 72 nM
fraction unbound [9]: 0.1
IC50 (Phosphodiesterase 3): 1030 nM
Drug metabolism [29]: Metabolite_Detected
IC50 [11]: 6.3 nM
Vdu [12]: 90 L/kg
Activity [30]: Non-Toxic
Activity [31]: Non-Toxic
Drug metabolism [32]: Metabolite_Detected
IC50 [13]: 450 nM
bioavailability [14]: 76%
IC50 (Phosphodiesterase 1): 2350 nM
fCmax [33]: 8 µM
fAUC [34]: 4.4 µM·h
clearance [35]: 46 mL/min/kg
IC50 [36]: 4010 nM
Vdu [15]: 4 L/kg
Vd [16]: 4.6 L/kg
logD [17]: 1.4
half-life [18]: 1.2 h
IC50 [37]: 4900 nM
IC50 [38]: 810 nM
bioavailability [39]: 61%

CC[C@H](Nc1ncnc2c1nc(-c1cnn(CC)c1C)n2C)C(=O)N1C[C@@H](C)O[C@@H](C)C1
clearance [2]: 7.9 mL/min/kg
clearance [40]: 50 mL/min/kg
fraction unbound [5]: 0.42
Vd [6]: 1.1 L/kg
half-life [7]: 1.2 h
IC50 [8]: 3130 nM
fraction unbound [9]: 0.42
CL [10]: 25 mL/min/kg
Vdu [12]: 2 L/kg
IC50 [13]: 262 nM
Vdu [15]: 3 L/kg
CL [41]: 290 mL/min/kg
Vd [16]: 0.9 L/kg
logD [17]: 1.7
half-life [18]: 0.3 h
